{
  "source": "patent EP3282019A1",
  "about": "“[…] TREATMENT OF CANCER, IN […] L[…]” (priority 2016, dated 2018)",
  "key": {"[1]": {"tested_on": "NOTCH2 (N2^IC / Mastermind / CSL) transcription factor complex", "assay": "EMSA of DNA-bound NOTCH2 complexes in nuclear extracts of CLL cells", "type": "cell-based, human", "experimental": "Preparation of nuclear extracts and EMSA: 3x10^7 cells were lysed in 1ml hypotonic buffer (10mM HEPES, pH 7.9; 1.5mM MgCl2; 10mM KCL) containing 0.15% NP-40 at 4°C for 10 min. The nuclear proteins were extracted from the nuclear fraction by resuspending the nuclei in 100µl extraction buffer (300mM KCl; 1.5mM MgCl2; 20mM HEPES pH 7.9; 0.2mM EDTA; 25% Glycerin) at 4°C for 20 min with constant agitation. The CSL site spanning EMSA probe was derived from the CD23a promoter (5'-[…]-3' (SEQ ID NO: 40) annealed with the reverse complementary strand). The N1^IC (bTAN 20) and N2^IC (C651.6DbHN) antibodies was obtained from the Developmental Studies Hybridoma Bank (University of Iowa, Department of Biological Science, Iowa City, IA). EMSA was performed essentially as described (Hubmann et al., 2010)"}, "[2]": {"tested_on": "NOTCH and apoptosis related genes", "assay": "semiquantitative RT-PCR of NOTCH and apoptosis related genes in CLL cells", "type": "cell-based, human", "conditions": "for NOTCH3 expression / NR4A1 expression: Fig 3A, right panel", "text": "PCR, RT-PCR, and Western blot analysis: Total RNA was extracted using the Trizol isolation system (Invitrogen/Life Technologies, Paisley, UK). Genomic DNA (gDNA) was extracted using the Wizard Genomic DNA extraction kit from Promega. M-MLV reverse transcriptase and GoTaq PCR kits (Promega, WI, USA) were used for semiquantitative reverse transcriptase polymerase chain reactions (RT-PCR).\nPCR and RT-PCR techniques (long range PCR using genomic DNA, semiquantitative RT-PCR), and western blotting (Modular Mini-Protean II system from Bio Rad) were used routinely according to standard protocols."}, "CLL cells [3]": {"tested_on": "CLL cells", "assay": "FACS detection of apoptosis (AnnexinV / propidium iodide) in CLL cells, PMA activation model", "type": "cell-based, human", "experimental": "Cell lines and culture: CLL cells were cultured in RPMI 1640 medium containing 10% fetal calf serum, 100U/ml penicillin and […] streptomycin at 37 °C, 7.5% CO2 in humidified atmosphere. The ex vivo CLL microenvironment model based on using primary human bone marrow stromal cells in co-culture with CLL cells was applied as previously described and was used for analysing the effect of gliotoxin, RO4929097, and blocking antibodies on CLL cells in a milieu resembling the situation in vivo (Shehata et al., 2004). The PMA activation model was used to analyse the function of PKC stimulation on the regulation of NOTCH2/NOTCH3 signalling in CLL cells.\nFlow cytometry (FACS) and detection of cell viability: Antibodies (CD5, CD19, CD20, CD23, CD49d, CD37, CD52, and 7-Aminoactinomycin D (7-AAD) were purchased from Becton Dickinson (San Jose, CA). Species- and isotype-matched irrelevant antibodies are used as controls. Flow cytometry was performed on a FACScan® using CellQuest Pro software version 5.2.1 (Becton Dickinson, San Jose, CA). Ultra high speed cell sorting was used to isolate CD5+/CD19+ CLL cells from normal B-cells (CD19+/CD5-) and T-cells (CD3+). AnnexinV, propidium iodide, and 7-AAD staining was performed to estimate the percentages of cells undergoing apoptosis. The overall effect on cell viability was calculated as the sum of early apoptotic (AnnexinV single positive; Ax+/PI-) and late apoptotic/necrotic (AnnexinV/propidium iodide double positive; Ax+/PI+) cells using a kit from Bender Med. Systems Inc. (Vienna, AT). Cell viability was evaluated by a nonisotopic MTT (3-(4,5-dimethylthiazolyl-2)-2,5-diphenyltetrazolium bromide) assay (Ez4U) in 96-well culture plates as described by the manufacturer (Biomedica, AT)."}, "CLL cells [4]": {"tested_on": "CLL cells", "assay": "ex vivo CLL microenvironment model (co-culture with primary human bone marrow stromal cells)"}, "[5]": {"conditions": "chronic stimulation with PMA, after 3 days, CLL cells"}, "[6]": {"conditions": "RO4929097 0.5µM, PMA-activated CLL cells expressing a GSI resistant form of nuclear NOTCH2"}},
  "data": [
    {"compound": "C[C@H](NC(=O)Cc1cc(F)cc(F)c1)C(=O)N[C@H](C(=O)OC(C)(C)C)c1ccccc1", "note": "[DAPT]", "values": [
      {"measurement": "nuclear NOTCH2 activity", "setting": "[1]; 5µM DAPT, majority of CLL cases, Fig. 1A and B", "value": "no effect"},
      {"measurement": "sensitivity of DNA-bound NOTCH2 complexes to GSI", "setting": "[1]; majority of CLL cases, Fig. 2B", "value": "less sensitive/resistant"}
    ]},
    {"compound": "CCCCCCCCCCCCCC(=O)O[C@@H]1[C@@H](C)[C@@]2(O)[C@@H](C=C(CO)C[C@]3(O)C(=O)C(C)=C[C@@H]23)[C@@H]2C(C)(C)[C@]12OC(C)=O", "note": "[PMA]", "values": [
      {"measurement": "expression of all NOTCH ligands", "setting": "[2]; PMA-activated CLL cells, Fig 2C, lane 4", "value": "downregulation"},
      {"measurement": "NOTCH3 expression", "setting": "[2]; [5]", "value": "upregulation"},
      {"measurement": "NR4A1 expression", "setting": "[2]; [5]", "value": "upregulation"}
    ]},
    {"compound": "CC(C)(C(=O)NCC(F)(F)C(F)(F)F)C(=O)N[C@@H]1C(=O)Nc2ccccc2-c2ccccc21", "note": "[RO4929097]", "values": [
      {"measurement": "gliotoxin mediated apoptosis", "setting": "CLL cells [3]; RO4929097 0.5µM with gliotoxin 0.2µM, PMA-activated CLL cells expressing a GSI resistant form of nuclear NOTCH2, Fig 3B", "value": "counteracts"},
      {"measurement": "spontaneous apoptosis", "setting": "CLL cells [3]; RO4929097 0.5µM, PMA-activated CLL cells expressing a GSI resistant form of nuclear NOTCH2, Fig 3B", "value": "counteracts"},
      {"measurement": "NOTCH3 expression", "setting": "[2]; [6]", "value": "inhibits"},
      {"measurement": "NR4A1 expression", "setting": "[2]; [6]", "value": "inhibits"}
    ]},
    {"compound": "CN1C(=O)[C@]23CC4=CC=C[C@H](O)[C@H]4N2C(=O)[C@@]1(CO)SS3", "note": "[gliotoxin]", "values": [
      {"measurement": "anti-apoptotic effect of bone marrow stromal cells", "setting": "CLL cells [4]", "value": "could also overcome the anti-apoptotic effect"},
      {"measurement": "NOTCH2 at the transcription factor level", "setting": "[1]", "value": "inhibits NOTCH2 at the transcription factor level"},
      {"measurement": "NOTCH2 transactivation", "setting": "[1]", "value": "potent NOTCH2 transactivation inhibitor"},
      {"measurement": "assembly of the ternary NOTCH2 (N2^IC / Mastermind / CSL) transcription factor complex on DNA", "setting": "[1]", "value": "interferes with the assembly"},
      {"measurement": "apoptosis in CLL cells", "setting": "CLL cells [3]", "value": "efficiently induced apoptosis"},
      {"measurement": "protective effect of PMA on CLL cells", "setting": "CLL cells [3]", "value": "reversed the protective effect of PMA"},
      {"measurement": "NOTCH2 signalling", "setting": "[2]", "value": "rapidly inhibited"},
      {"measurement": "NOTCH3 mRNA expression", "setting": "[2]", "value": "upregulated"},
      {"measurement": "NR4A1 mRNA expression", "setting": "[2]", "value": "upregulated"},
      {"measurement": "co-expression of NOTCH3 and its ligand JAG2 (unstimulated cells) or DLL1 (PMA activated cells)", "setting": "[2]", "value": "induced co-expression"}
    ]}
  ]
}
